Measured values published in US10874743B2, “IRAK degraders and uses thereof” (Kymera Therapeutics, Inc., priority 2017, dated 2020).

Target: T1, IRAK4 (Homo sapiens, UniProt Q9NWZ3)
T1 sequence (Q9NWZ3 1-460): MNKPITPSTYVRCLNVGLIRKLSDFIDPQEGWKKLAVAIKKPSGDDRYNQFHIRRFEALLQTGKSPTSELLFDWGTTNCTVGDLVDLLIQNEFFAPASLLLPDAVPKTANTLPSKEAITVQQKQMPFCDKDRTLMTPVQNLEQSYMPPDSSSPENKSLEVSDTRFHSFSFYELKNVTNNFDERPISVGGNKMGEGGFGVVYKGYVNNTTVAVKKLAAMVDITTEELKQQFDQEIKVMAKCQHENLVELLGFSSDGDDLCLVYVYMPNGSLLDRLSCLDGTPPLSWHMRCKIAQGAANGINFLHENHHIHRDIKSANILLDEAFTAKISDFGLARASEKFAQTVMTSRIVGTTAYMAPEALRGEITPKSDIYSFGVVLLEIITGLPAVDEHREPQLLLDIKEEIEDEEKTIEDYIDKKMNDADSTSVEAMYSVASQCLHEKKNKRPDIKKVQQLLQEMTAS
Assay: OCI-LY-10 MSD assay for IRAK4 DC50
Type: cell-based
Set-up: endogenous in cells; host or cells: OCI-LY10
Settings: OCI-LY10 cells, 4 hr incubation, concentration required to degrade 50% of protein
Method: A MSD assay was run to determine the concentration of compound required to degrade 50% of protein (DC50).
Day 1 • Compounds were reconstituted to 10 mM in stock solutions. The stock solutions were diluted to 5 mM and 45 μL of each dilution was transferred to a 384 pp-plate. A 3 fold, 8-point serial dilution was performed by transferring 15 μL of compound into 30 μL DMSO using Janus. • 20 nL of each compounds were added into each well of a 96-well plate (Corning3799). • OCI-Ly10 cells were seeded into the 96-well plate at 3.0*10e^5 cells/100 μL/well. • The cell plate was shaken at 720 rpm for 5 min and incubated for 4 hr. • The 100 μL of cells were transferred into the 96-PCR plate and spun down at high speed for 5 mins. • The supernatant was discarded and 100 μL of RIPA lysis buffer with proteinase inhibitors was added per well. The plate was then sealed and shaken at 600 rpm and 4° C. for about 20 min. • The plate was then spun down at high speed (about 3200 g) for 30 min and then frozen in a −80° C. fridge. • A bare MSD plate (L15XA-3) was coated with 2 μg/mL of capture antibody (mouse Anti-IRAK4 antibody [2H9], ab119942) in PBS to 40 μL/well and incubated overnight at 4° C.
Day 2 • The MSD coated plate was washed 3× (150 μL/well) with 1×TBST (CST #9997S). • The MSD plate was then blocked with 150 μL of blocking buffer [3% Blocker A (MSD, R93BA-4) in TBST]/well and shaken for 1 hr at R^† and 600 rpm. • The MSD plate was washed 3× (150 μL/well) with 1×TBST. The sample RIPA lysates were then added to the MSD plate (50 μL/well) and shaken for 1 hr at R^† and 600 rpm. • The MSD plate was washed 3× (150 μL/well) with 1×TBST and the primary detection antibody (Rabbit Anti-IRAK4 antibody [Y279], ab32511) was added to a final concentration of 1 μg/ml with 25 μL/well. The plate was then shaken for 1 hr at RT and 600 rpm. • The MSD plate was washed 3× (150 μL/well) with 1×TBST and the secondary detection antibody, SULFO-TAG anti-species antibody (Anti Rabbit Antibody (R32AB-5) MSD, R32AB-1) was added to a volume of 25 μL/well at a final concentration of 1 jag/ml. The plate was then shaken for 1 hr at RT and 600 rpm. • The MSD plate was then washed 3× (150 μL/well) with 1×TBST. • lx MSD reading buffer was then added (150 μL/well) and the plate was diluted with 4× water. (MSD, R92TC-2) • The MSD instrument was then read.
Data Analysis • The remaining activity was calculated following the formula below:
Calculate • The DC50 was calculated by fitting the Curve using Xlfit (v5.3.1.3), equation 201: Y=Bottom+(Top−Bottom)/(1+10^((Log IC50−X)*HillSlope))
OCI-LY-10 DC50 results. The letter codes for IRAK4 DC50 indicate the concentration of compound required to degrade 50% of protein: A (<0.05 μM), B (0.05-0.1 μM), C (0.1-0.5 μM), D (0.5-1.0 μM), and E (>1.0 μM).

| Structure (SMILES) | DC50 [µM] |
| --- | --- |
| Cn1c(=O)n(C2CCC(=O)NC2=O)c2ccc(CCCCOCCCCNCc3ccc(-n4cc(NC(=O)c5coc(-c6ccnc(NCC7CC7)c6)n5)c(C(F)F)n4)cc3)cc21 (stereo not shown) [I-411, 2-[2-(cyclopropylmethylamino)-4-pyridyl]-N-[3-(difluoromethyl)-1-[4-[[4-[4-[1-(2,6-dioxo-3-piperidyl)-3-methyl-2-oxo-benzimidazol-5-yl]butoxy]butylamino]methyl]phenyl]pyrazol-4-yl]oxazole-4-carboxamide] | < 0.05 |
| Cn1cc(NC(=O)c2coc(-c3ccnc(NCC(F)(F)F)c3)n2)c(CNCCCOCCCOCCCNc2cccc3c2C(=O)N(C2CCC(=O)NC2=O)C3=O)n1 (stereo not shown) [I-412] | > 1 |
| Cc1ncsc1-c1ccc(CNC(=O)[C@@H]2C[C@@H](O)CN2C(=O)[C@@H](NCCOCCOCCOCCNCc2nn(C)cc2NC(=O)c2coc(-c3ccnc(NCC(F)(F)F)c3)n2)C(C)(C)C)cc1 [I-413] | > 1 |
| Cc1ncsc1-c1ccc(CNC(=O)[C@@H]2C[C@@H](O)CN2C(=O)[C@@H](NC(=O)COCCOCCOCCNCc2ccc(-n3cc(NC(=O)c4coc(-c5ccnc(NCC(F)(F)F)c5)n4)c(C(N)=O)n3)cc2)C(C)(C)C)cc1 [I-414] | 0.1 to 0.5 |
| Cc1ncsc1-c1ccc(CNC(=O)[C@@H]2C[C@@H](O)CN2C(=O)[C@@H](NCCOCCOCCOCCNCc2ccc(-n3cc(NC(=O)c4coc(-c5ccnc(NCC(F)(F)F)c5)n4)c(C(N)=O)n3)cc2)C(C)(C)C)cc1 [I-415] | > 1 |
| COCC(=O)N[C@H](C(=O)N1Cc2cc(OCCOCCOCCOCCOCCOCCNCc3ccc(-n4cc(NC(=O)c5coc(-c6ccnc(NCC7CC7)c6)n5)c(C(F)F)n4)cc3)ccc2CC1C(=O)N[C@@H]1CCCc2ccccc21)C(C)(C)C (stereo partly shown) [I-416] | > 1 |
| COCC(=O)N[C@H](C(=O)N1Cc2cc(OCCOCCOCCOCCNCc3ccc(-n4cc(NC(=O)c5coc(-c6ccnc(NCC7CC7)c6)n5)c(C(F)F)n4)cc3)ccc2CC1C(=O)N[C@@H]1CCCc2ccccc21)C(C)(C)C (stereo partly shown) [I-417] | > 1 |
| Cn1c(=O)n(C2CCC(=O)NC2=O)c2cccc(CCCOCC(C)(C)COCCCNCc3ccc(-n4cc(NC(=O)c5coc(-c6ccnc(NCC7CC7)c6)n5)c(C(F)F)n4)cc3)c21 (stereo not shown) [I-419] | 0.1 to 0.5 |
| Cn1cc(NC(=O)c2coc(-c3ccnc(NCC(F)(F)F)c3)n2)c(CNCCCOCC(C)(C)COCCCc2cccc3c2n(C)c(=O)n3C2CCC(=O)NC2=O)n1 (stereo not shown) [I-420] | > 1 |
| Cn1c(=O)n(C2CCC(=O)NC2=O)c2ccc(CCCOCC(C)(C)COCCCNCc3ccc(-n4cc(NC(=O)c5coc(-c6ccnc(NCC7CC7)c6)n5)c(C(F)F)n4)cc3)cc21 (stereo not shown) [I-421] | 0.1 to 0.5 |
| Cn1c(=O)n(C2CCC(=O)NC2=O)c2cccc(CCCOCCOCCNCc3ccc(-n4cc(NC(=O)c5cocn5)c(C(N)=O)n4)cc3)c21 (stereo not shown) [I-422] | > 1 |
| Cn1c(=O)n(C2CCC(=O)NC2=O)c2cccc(CCCNCc3ccc(-n4cc(NC(=O)c5coc(-c6ccnc(NCC7CC7)c6)n5)c(C(F)F)n4)cc3)c21 (stereo not shown) [I-423] | > 1 |
| O=C1CCC(N2C(=O)c3cccc(NCCOCCOCCNC(=O)c4ccc(-n5cc(NC(=O)c6coc(-c7ccnc(NCC(F)(F)F)c7)n6)c(N6CCN(CCO)C6=O)n5)cc4)c3C2=O)C(=O)N1 (stereo not shown) [I-428] | < 0.05 |
| Cn1c(=O)n(C2CCC(=O)NC2=O)c2ccc(CCCCOCCCCNCc3ccc(-n4cc(NC(=O)c5cnn6ccc(N7CCNCC7)nc56)c(C(F)F)n4)cc3)cc21 (stereo not shown) [I-441, N-[3-(difluoromethyl)-1-[4-[[4-[4-[1-(2,6-dioxo-3-piperidyl)-3-methyl-2-oxo-benzimidazol-5-yl]butoxy]butylamino]methyl]phenyl]pyrazol-4-yl]-5-piperazin-1-yl-pyrazolo[1,5-a]pyrimidine-3-carboxamide] | > 1 |

More lines, now with the values ahead:

| DC50 [µM] | Structure (SMILES) |
| --- | --- |
| > 1 | CC1(C)CCN(c2nn(-c3ccc(C(=O)NCCOCCOCCNc4cccc5c4C(=O)N(C4CCC(=O)NC4=O)C5=O)cc3)cc2NC(=O)c2coc(-c3ccnc(NCC(F)(F)F)c3)n2)C1=O (stereo not shown) [I-429, N-[3-(3,3-dimethyl-2-oxo-pyrrolidin-1-yl)-1-[4-[2-[2-[2-[[2-(2,6-dioxo-3-piperidyl)-1,3-dioxo-isoindolin-4-yl]amino]ethoxy]ethoxy]ethyl]carbamoyl]phenyl]pyrazol-4-yl-2-[2-(2,2,2-trifluoroethylamino)-4-pyridyl]oxazole-4-carboxamide] |
| > 1 | Cn1cc(NC(=O)c2coc(-c3cccnc3NCCOCCOCCOCCNc3cccc4c3C(=O)N(C3CCC(=O)NC3=O)C4=O)n2)c(C(F)F)n1 (stereo not shown) [I-432, N-[3-(difluoromethyl)-1-methyl-pyrazol-4-yl]-2-[2-[2-[2-[2-[2-[[2-(2,6-dioxo-3-piperidyl)-1,3-dioxo-isoindolin-4-yl]amino]ethoxy]ethoxy]ethoxy]ethylamino]-3-pyridyl]oxazole-4-carboxamide] |
| > 1 | Cn1c(=O)n(C2CCC(=O)NC2=O)c2ccc(CCCOCCCN3CCN(C4CCC(Nc5ncnn6ccc(C7CCOCC7)c56)CC4)CC3)cc21 (stereo not shown) [I-436, 3-[3-Methyl-2-oxo-5-[3-[3-[4-[4-[(5-tetrahydropyran-4-ylpyrrolo[2,1-f][1,2,4]triazin-4-yl)amino]cyclohexyl]piperazin-1-yl]propoxy]propyl]benzimidazol-1-yl]piperidine-2,6-dione] |
| > 1 | Cn1c(=O)n(C2CCC(=O)NC2=O)c2ccc(CCCOCCC(=O)N3CCN(C4CCC(Nc5ncnn6ccc(C7CCOCC7)c56)CC4)CC3)cc21 (stereo not shown) [I-437, 3-[3-Methyl-2-oxo-5-[3-[3-oxo-3-[4-[4-[(5-tetrahydropyran-4-ylpyrrolo[2,1-f][1,2,4]triazin-4-yl)amino]cyclohexyl]piperazin-1-yl]propoxy]propyl]benzimidazol-1-yl]piperidine-2,6-dione] |
| > 1 | Cn1c(=O)n(C2CCC(=O)NC2=O)c2ccc(CCCCCCC(=O)N3CCN(C4CCC(Nc5ncnn6ccc(C7CCOCC7)c56)CC4)CC3)cc21 (stereo not shown) [I-438] |
| > 1 | Cn1c(=O)n(C2CCC(=O)NC2=O)c2cccc(CCCOCCOCCOCCOCC(=O)N[C@H]3CC[C@H](Nc4ncnc5[nH]cc(C6CCOCC6)c45)CC3)c21 (stereo partly shown) [I-440, 2-[2-[2-[2-[3-[1-(2,6-Dioxo-3-piperidyl)-3-methyl-2-oxo-benzimidazol-4-yl]propoxy]ethoxy]ethoxy]ethoxy]-N-[4-[(5-tetrahydropyran-4-yl-7H-pyrrolo[2,3-d]pyrimidin-4-yl)amino]cyclohexyl]acetamide] |
| > 1 | Cn1c(=O)n(C2CCC(=O)NC2=O)c2cccc(CCCOCCOCCOCCOCCN[C@H]3CC[C@H](Nc4ncnc5[nH]cc(C6CCOCC6)c45)CC3)c21 (stereo partly shown) [I-442, 3-[3-Methyl-2-oxo-4-[3-[2-[2-[2-[2-[[4-[(5-tetrahydropyran-4-yl-7H-pyrrolo[2,3-d]pyrimidin-4-yl)amino]cyclohexyl]amino]ethoxy]ethoxy]ethoxy]ethoxy]propyl]benzimidazol-1-yl]piperidine-2,6-dione] |
| 0.05 to 0.1 | Cn1c(=O)n(C2CCC(=O)NC2=O)c2cccc(CCCOCCOCCOCCOCC(=O)N3CCN(C4CCC(Nc5ncnc6[nH]cc(C7CCOCC7)c56)CC4)CC3)c21 (stereo not shown) [I-444, 3-[3-Methyl-2-oxo-4-[3-[2-[2-[2-[2-oxo-2-[4-[4-[(5-tetrahydropyran-4-yl-7H-pyrrolo[2,3-d]pyrimidin-4-yl)amino]cyclohexyl]piperazin-1-yl]ethoxy]ethoxy]ethoxy]ethoxy]propyl]benzimidazol-1-yl]piperidine-2,6-dione] |
